Results reported in patent publication US20250270191A1, “QUINOLONE BCL6 BIFUNCTIONAL DEGRADERS” (Treeline Biosciences, Inc., priority 2022, published 2025).

biological target: T1, Human BCL6 protein (N-terminal HiBiT tagged BCL6 in HT1080 cells) (Homo sapiens, UniProt P41182+Q96SW2); experiment: HiBiT based BCL6 degradation assay; format: cell-based; details: HT1080 cells expressing N-terminal HiBiT tagged BCL6; 5 hours incubation; BCL6 degradation normalized with DMSO control
T1 construct: Human BCL6 protein coding open reading frame; expressed in transfected cells; host or cells: HT1080 (ATCC CCL-121), stably transduced with lentivirus pLV-UBC-N-HiBiT-BCL6-PGK-puro
Source text: Human BCL6 protein coding open reading frame fused with N-terminal HiBiT coding sequence was synthesized from Integrated DNA Technologies (IDT). Next, the N-HiBiT-BCL6 sequence was cloned into pLV-UBC-PGK-Puro, a lentivirus plasmid purchased from Vectorbuilder, to generate pLV-UBC-N-HiBiT-BCL6-PGK-puro. Lentiviral particles were generated from Lenti-X™ 293T cells (Clontech) by co-transfection of pLV-UBC-N-HiBiT-BCL6-PGK-puro plasmids and lentiviral packaging plasmid mix (Cellecta). HT1080 [HT1080] (ATCC CCL-121) cells were infected with the lentivirus, and HT1080 cells stably integrated with the lentiviral vectors were established by incubation with 1 μg/mL puromycin (Thermofisher).
HT1080 cells expressing N-terminal HiBiT tagged BCL6 were dispensed into a 384-well plate pre-spotted with compounds at varying concentrations. Five thousand cells were seeded into each well in 40 μL of RPMI 1640 media plus 10% Fetal Bovine Serum (10082-147, Thermofisher). After 5 hours of incubation at 37° C. with 5% CO2, 30 μL of the NANO-GLO® HiBiT Lytic Detection System working solution (Promega) was added to each well and incubated at room temperature for 15 min. After incubation, luminescence was read on a PHERAstar FSX Plate Reader (BMG). BCL6 degradation at each indicated concentration was normalized with DMSO control. The BCL6 degradation curves were plotted using a four-parameter logistic model.

Compound | Ymin (5 hr)
CNC(=O)COc1cc2cc(Nc3nc(NC[C@H]4CC[C@@H](Nc5ccc(C6CCC(=O)NC6=O)cc5)CC4)ncc3Cl)ccc2n(C)c1=O (stereo partly drawn) [Compound 277b, 2-((6-((5-chloro-2-((((1s,4s)-4-((4-(2,6-dioxopiperidin-3-yl)phenyl)amino)cyclohexyl)methyl)amino)pyrimidin-4-yl)amino)-1-methyl-2-oxo-1,2-dihydroquinolin-3-yl)oxy)-N-methylacetamide] | ++ (50% < Ymin ≤ 70%)
CNC(=O)COc1cc2cc(Nc3nc(N4CCC[C@H](Nc5ccc6c(C7CCC(=O)NC7=O)nn(C)c6c5)C4)ncc3Cl)ccc2n(C)c1=O (stereo partly drawn) [Compound 280a, 2-((6-((5-chloro-2-((3S)-3-((3-(2,6-dioxopiperidin-3-yl)-1-methyl-1H-indazol-6-yl)amino)piperidin-1-yl)pyrimidin-4-yl)amino)-1-methyl-2-oxo-1,2-dihydroquinolin-3-yl)oxy)-N-methylacetamide] | ++ (50% < Ymin ≤ 70%)
CNC(=O)COc1cc2cc(Nc3nc(N4CCN(CC5CCC6(CC5)CN(c5ccc7c(C8CCC(=O)NC8=O)nn(C)c7c5)C6)CC4)ncc3Cl)ccc2n(C(C)C)c1=O (stereo not drawn) [Compound 298, 2-((6-((5-chloro-2-(4-((2-(3-(2,6-dioxopiperidin-3-yl)-1-methyl-1H-indazol-6-yl)-2-azaspiro[3.5]nonan-7-yl)methyl)piperazin-1-yl)pyrimidin-4-yl)amino)-1-isopropyl-2-oxo-1,2-dihydroquinolin-3-yl)oxy)-N-methylacetamide] | +++ (25% < Ymin ≤ 50%)
CNC(=O)COc1cc2cc(Nc3nc(N4CCN(C(C)(C)C5CCN(c6cccc7c(C8CCC(=O)NC8=O)nn(C)c67)CC5)CC4)ncc3Cl)ccc2n(C)c1=O (stereo not drawn) [Compound 337, 2-((6-((5-chloro-2-(4-(2-(1-(3-(2,6-dioxopiperidin-3-yl)-1-methyl-1H-indazol-7-yl)piperidin-4-yl)propan-2-yl)piperazin-1-yl)pyrimidin-4-yl)amino)-1-methyl-2-oxo-1,2-dihydroquinolin-3-yl)oxy)-N-methylacetamide] | ++++ (Ymin ≤ 25%)
CNC(=O)COc1cc2cc(Nc3nc(N4CCN([C@@H](C)C5CCN(c6cccc7c(C8CCC(=O)NC8=O)nn(C)c67)CC5)CC4)ncc3Cl)ccc2n(C)c1=O (single isomer, unassigned) [Compound 307a] | ++++ (Ymin ≤ 25%)
CNC(=O)COc1cc2cc(Nc3nc(N4CC5CCC(Nc6ccc7c(C8CCC(=O)NC8=O)nn(C)c7c6)CC5C4)ncc3Cl)ccc2n(C)c1=O (stereo not drawn) [Compound 338, 2-((6-((5-chloro-2-(5-((3-(2,6-dioxopiperidin-3-yl)-1-methyl-1H-indazol-6-yl)amino)octahydro-2H-isoindol-2-yl)pyrimidin-4-yl)amino)-1-methyl-2-oxo-1,2-dihydroquinolin-3-yl)oxy)-N-methylacetamide] | ++ (50% < Ymin ≤ 70%)
CNC(=O)COc1cc2cc(Nc3nc(N4CCN(C5CN(c6ccc7c(C8CCC(=O)NC8=O)nn(C)c7c6)C5)CC4)ncc3Cl)ccc2n(C)c1=O (stereo not drawn) [Compound 282, 2-((6-((5-chloro-2-(4-(1-(3-(2,6-dioxopiperidin-3-yl)-1-methyl-1H-indazol-6-yl)azetidin-3-yl)piperazin-1-yl)pyrimidin-4-yl)amino)-1-methyl-2-oxo-1,2-dihydroquinolin-3-yl)oxy)-N-methylacetamide] | +++ (25% < Ymin ≤ 50%)
CNC(=O)COc1cc2cc(Nc3nc(N4CCC[C@H](CNc5ccc6c(C7CCC(=O)NC7=O)nn(C)c6c5)C4)ncc3Cl)ccc2n(C)c1=O (stereo partly drawn) [Compound 261b, 2-((6-((5-chloro-2-((3R)-3-(((3-(2,6-dioxopiperidin-3-yl)-1-methyl-1H-indazol-6-yl)amino)methyl)piperidin-1-yl)pyrimidin-4-yl)amino)-1-methyl-2-oxo-1,2-dihydroquinolin-3-yl)oxy)-N-methylacetamide] | +++ (25% < Ymin ≤ 50%)
CNC(=O)COc1cc2cc(Nc3nc(N4CC5(CCC(Nc6ccc7c(C8CCC(=O)NC8=O)nn(C)c7c6)CC5)C4)ncc3Cl)ccc2n(C)c1=O (stereo not drawn) [Compound 341, 2-((6-((5-chloro-2-(7-((3-(2,6-dioxopiperidin-3-yl)-1-methyl-1H-indazol-6-yl)amino)-2-azaspiro[3.5]nonan-2-yl)pyrimidin-4-yl)amino)-1-methyl-2-oxo-1,2-dihydroquinolin-3-yl)oxy)-N-methylacetamide] | ++++ (Ymin ≤ 25%)
CNC(=O)COc1cc2cc(Nc3nc(N4CCC[C@@H](CNc5cccc6c(C7CCC(=O)NC7=O)nn(C)c56)C4)ncc3Cl)ccc2n(C)c1=O (stereo partly drawn) [Compound 266a, 2-((6-((5-chloro-2-((3S)-3-(((3-(2,6-dioxopiperidin-3-yl)-1-methyl-1H-indazol-7-yl)amino)methyl)piperidin-1-yl)pyrimidin-4-yl)amino)-1-methyl-2-oxo-1,2-dihydroquinolin-3-yl)oxy)-N-methylacetamide] | ++ (50% < Ymin ≤ 70%)
CNC(=O)COc1cc2cc(Nc3nc(NC[C@@H]4CCCN(c5cccc6c(C7CCC(=O)NC7=O)nn(C)c56)C4)ncc3Cl)ccc2n(C)c1=O (stereo partly drawn) [Compound 303a, 2-((6-((5-chloro-2-((((3S)-1-(3-(2,6-dioxopiperidin-3-yl)-1-methyl-1H-indazol-7-yl)piperidin-3-yl)methyl)amino)pyrimidin-4-yl)amino)-1-methyl-2-oxo-1,2-dihydroquinolin-3-yl)oxy)-N-methylacetamide] | ++ (50% < Ymin ≤ 70%)
CNC(=O)COc1cc2cc(Nc3nc(N4CCC(CCNc5cccc(C6CCC(=O)NC6=O)c5)CC4)ncc3Cl)ccc2n(C)c1=O (stereo not drawn) [Compound 263, 2-((6-((5-chloro-2-(4-(2-((3-(2,6-dioxopiperidin-3-yl)phenyl)amino)ethyl)piperidin-1-yl)pyrimidin-4-yl)amino)-1-methyl-2-oxo-1,2-dihydroquinolin-3-yl)oxy)-N-methylacetamide] | ++ (50% < Ymin ≤ 70%)
CNC(=O)COc1cc2cc(Nc3nc(N4CCC[C@@H](CNc5cccc(C6CCC(=O)NC6=O)c5)C4)ncc3Cl)ccc2n(C)c1=O (stereo partly drawn) [Compound 275b, 2-((6-((5-chloro-2-((3S)-3-(((3-(2,6-dioxopiperidin-3-yl)phenyl)amino)methyl)piperidin-1-yl)pyrimidin-4-yl)amino)-1-methyl-2-oxo-1,2-dihydroquinolin-3-yl)oxy)-N-methylacetamide] | ++ (50% < Ymin ≤ 70%)
CNC(=O)COc1cc2cc(Nc3nc(N4CCC[C@H](CNc5cccc6c(C7CCC(=O)NC7=O)nn(C)c56)C4)ncc3Cl)ccc2n(C)c1=O (stereo partly drawn) [Compound 266b, 2-((6-((5-chloro-2-((3R)-3-(((3-(2,6-dioxopiperidin-3-yl)-1-methyl-1H-indazol-7-yl)amino)methyl)piperidin-1-yl)pyrimidin-4-yl)amino)-1-methyl-2-oxo-1,2-dihydroquinolin-3-yl)oxy)-N-methylacetamide] | ++ (50% < Ymin ≤ 70%)
CNC(=O)COc1cc2cc(Nc3nc(N4CCN(C[C@@H]5CCN(c6ccc7c(C8CCC(=O)NC8=O)nn(C)c7c6)C5)CC4)ncc3Cl)ccc2n(C)c1=O (stereo partly drawn) [Compound 306b, 2-((6-((5-chloro-2-(4-(((3S)-1-(3-(2,6-dioxopiperidin-3-yl)-1-methyl-1H-indazol-6-yl)pyrrolidin-3-yl)methyl)piperazin-1-yl)pyrimidin-4-yl)amino)-1-methyl-2-oxo-1,2-dihydroquinolin-3-yl)oxy)-N-methylacetamide] | ++++ (Ymin ≤ 25%)
